According to patent US8268825B2 (priority 2005, dated 2012):
Values after ≈ are worked out from the molar mass of the structure shown.

Legend:
[1] = biological target: Bacillus anthracis DHFR (Bacillus anthracis, UniProt Q81R22); test: biochemical
[2] = biological target: T1, human DHFR (Homo sapiens, UniProt P00374); test: biochemical
T1 sequence (P00374 1-187): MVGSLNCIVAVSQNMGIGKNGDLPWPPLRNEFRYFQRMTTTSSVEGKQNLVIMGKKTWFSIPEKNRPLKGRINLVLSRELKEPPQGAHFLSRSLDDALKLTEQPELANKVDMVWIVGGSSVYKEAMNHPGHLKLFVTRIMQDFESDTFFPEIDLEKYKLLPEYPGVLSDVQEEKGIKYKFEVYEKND

[3] = system: Bacillus anthracis Sterne; test: microbe, parasite or virus in culture; type: cell-based; conditions: 16 h, read-out: MIC B. anthracis (ug/ml)

Sequence of Bacillus anthracis DHFR (Q81R22 1-162): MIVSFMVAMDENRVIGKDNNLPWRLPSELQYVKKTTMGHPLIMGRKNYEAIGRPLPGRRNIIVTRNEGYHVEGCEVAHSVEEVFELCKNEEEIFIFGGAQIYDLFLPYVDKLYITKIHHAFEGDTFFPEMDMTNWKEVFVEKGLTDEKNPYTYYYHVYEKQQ

| SMILES | IC50 [1] [nM] | IC50 [2] [nM] | MIC [3] [µg/mL] |
| --- | --- | --- | --- |
| COc1cc(Cc2cnc(N)nc2N)cc(/C=C/C(=O)N2N=Cc3ccccc3C2c2ccccc2)c1OCCN1CCOCC1 (stereo not shown) | 170 | > 16000 | ≤ 32 |
| CCCC1c2ccccc2C=NN1C(=O)/C=C/c1cc(Cc2cnc(N)nc2N)cc(OC)c1OC (stereo not shown) | 54 | 110000 | 13 (≈ 26.7 µM) |
| COc1cc(Cc2cnc(N)nc2N)cc(OC)c1OC [Trimethoprim, reference compound] | – | – | > 2000 |
| CCCCC1c2ccccc2C=NN1C(=O)/C=C/c1cc(Cc2cnc(N)nc2N)cc(OC)c1OC (stereo not shown) | 170 | – | ≤ 13 |
| COc1cc(Cc2cnc(N)nc2N)cc(/C=C/C(=O)N2N=Cc3ccccc3C2C2CCCCC2)c1OC (stereo not shown) | 260 | – | ≤ 13 |
| COc1cc(Cc2cnc(N)nc2N)cc(/C=C/C(=O)N2N=Cc3ccccc3C2C2CCCC2)c1OC (stereo not shown) | 200 | > 21000 | ≤ 26 |
| COc1cc(Cc2cnc(N)nc2N)cc(/C=C/C(=O)N2N=Cc3ccccc3C2c2ccccc2)c1OC.CS(=O)(=O)O (stereo not shown) | 46 | – | 26 |
